Consider eight compounds from patent US11396502B2, “Substituted heterocyclic derivatives as PI3K inhibitors” (Incyte Corporation, priority 2018, dated 2022).

One test deals with PI3Kγ (p110γ) (Homo sapiens (Human), UniProt P48736). The test is described as follows: PI3K-γ scintillation proximity assay. To be noted: recombinant human PI3Kγ 13 nM, 20 μM PIP2, 2 μM ATP, 120 min, room temperature. Format: biochemical. The method, boiled down:
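Recombinant human p110γ (13 nM) with 20 μM PIP2, 2 μM ATP plus [γ-33P]ATP in 20 mM MOPS pH 6.7, 10 mM MgCl2, 5 mM DTT, 0.03% CHAPS, 2% DMSO. Reaction ran 120 min at room temperature, then was quenched with EDTA and read with WGA SPA beads. IC50 came from percent-of-solvent-control curves.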
For orientation: SPA uses beads or plates that emit light when radiolabelled molecules are held near them.

A further test concerns the target PI3Kδ (p110δ/p85α) (Homo sapiens (Human), UniProt O00329). Kind of test: PI3Kδ scintillation proximity assay. Format: biochemical. To be noted: recombinant human PI3Kδ 3.4 nM, 20 μM PIP2, 2 μM ATP, 120 min, room temperature. The essentials: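 Recombinant p110δ/p85α (3.4 nM) with 20 μM PIP2, 2 μM ATP plus [γ-33P]ATP in MOPS pH 6.7, MgCl2, DTT, CHAPS, 2% DMSO; 120 min, room temperature. EDTA-quenched product captured on WGA SPA beads, scintillation counted. IC50 from percent solvent-control activity versus log inhibitor concentration.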

The subject of test [1] is Phosphorylated Ribosomal Protein S6 (RPS6) in THP-1 cells. Kind of test: THP-1 RPS6 ELISA assay. Format: cell-based, Human. Particulars: 2 hours compound, 10 nM MCP-1 for 15 minutes, Phospho-RPS6 ELISA, read-out: PI3Kγ_THP1_RPS6_ELISA IC50. The method, boiled down: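 Phospho-RPS6 in lysates measured by ELISA at 450 nm, corrected at 540 nm, after MCP-1 challenge (10 nM, 15 min) of THP-1 cells that were starved overnight and exposed to test compound for 2 h at 37° C, 2×10^5 cells/well. Curve fit of percent inhibition gives IC50.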

The mark [2] stands for this setting: Homo sapiens, THP-1, serum starved THP-1 cells.

Each structure is given as a SMILES string. Where a name gives a salt, the structure may show the parent alone. Read-outs that look alike come from different tables or passages of the source.

PI3Kγ (p110γ), sequence (P48736 whole entry): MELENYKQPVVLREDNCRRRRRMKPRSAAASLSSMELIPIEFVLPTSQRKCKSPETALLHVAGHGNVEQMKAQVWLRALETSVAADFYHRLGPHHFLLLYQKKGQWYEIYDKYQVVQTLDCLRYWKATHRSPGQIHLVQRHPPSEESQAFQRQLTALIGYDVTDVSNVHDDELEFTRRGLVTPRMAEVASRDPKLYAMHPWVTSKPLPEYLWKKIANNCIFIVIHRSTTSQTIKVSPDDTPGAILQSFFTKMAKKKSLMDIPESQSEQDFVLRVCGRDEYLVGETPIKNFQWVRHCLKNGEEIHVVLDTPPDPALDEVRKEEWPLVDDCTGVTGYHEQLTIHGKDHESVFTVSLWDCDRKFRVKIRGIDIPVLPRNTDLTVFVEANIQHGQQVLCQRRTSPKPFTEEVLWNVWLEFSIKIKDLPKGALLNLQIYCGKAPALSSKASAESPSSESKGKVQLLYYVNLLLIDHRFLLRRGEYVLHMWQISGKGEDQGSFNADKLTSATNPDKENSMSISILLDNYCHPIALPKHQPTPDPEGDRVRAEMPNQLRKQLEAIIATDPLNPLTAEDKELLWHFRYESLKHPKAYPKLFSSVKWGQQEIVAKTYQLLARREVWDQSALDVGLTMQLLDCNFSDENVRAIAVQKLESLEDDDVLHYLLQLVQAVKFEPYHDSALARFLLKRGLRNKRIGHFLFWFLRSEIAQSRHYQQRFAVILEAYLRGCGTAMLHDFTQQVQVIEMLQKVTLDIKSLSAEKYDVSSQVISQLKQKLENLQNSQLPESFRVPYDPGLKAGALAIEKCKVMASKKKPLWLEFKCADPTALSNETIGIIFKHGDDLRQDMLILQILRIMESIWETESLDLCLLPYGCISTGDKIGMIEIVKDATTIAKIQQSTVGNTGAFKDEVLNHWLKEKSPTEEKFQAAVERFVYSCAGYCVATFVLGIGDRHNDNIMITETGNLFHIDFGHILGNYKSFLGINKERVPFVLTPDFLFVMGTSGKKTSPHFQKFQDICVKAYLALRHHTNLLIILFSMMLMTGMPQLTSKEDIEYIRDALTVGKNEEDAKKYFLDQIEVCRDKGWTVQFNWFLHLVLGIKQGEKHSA
PI3Kδ (p110δ/p85α), sequence (O00329 whole entry): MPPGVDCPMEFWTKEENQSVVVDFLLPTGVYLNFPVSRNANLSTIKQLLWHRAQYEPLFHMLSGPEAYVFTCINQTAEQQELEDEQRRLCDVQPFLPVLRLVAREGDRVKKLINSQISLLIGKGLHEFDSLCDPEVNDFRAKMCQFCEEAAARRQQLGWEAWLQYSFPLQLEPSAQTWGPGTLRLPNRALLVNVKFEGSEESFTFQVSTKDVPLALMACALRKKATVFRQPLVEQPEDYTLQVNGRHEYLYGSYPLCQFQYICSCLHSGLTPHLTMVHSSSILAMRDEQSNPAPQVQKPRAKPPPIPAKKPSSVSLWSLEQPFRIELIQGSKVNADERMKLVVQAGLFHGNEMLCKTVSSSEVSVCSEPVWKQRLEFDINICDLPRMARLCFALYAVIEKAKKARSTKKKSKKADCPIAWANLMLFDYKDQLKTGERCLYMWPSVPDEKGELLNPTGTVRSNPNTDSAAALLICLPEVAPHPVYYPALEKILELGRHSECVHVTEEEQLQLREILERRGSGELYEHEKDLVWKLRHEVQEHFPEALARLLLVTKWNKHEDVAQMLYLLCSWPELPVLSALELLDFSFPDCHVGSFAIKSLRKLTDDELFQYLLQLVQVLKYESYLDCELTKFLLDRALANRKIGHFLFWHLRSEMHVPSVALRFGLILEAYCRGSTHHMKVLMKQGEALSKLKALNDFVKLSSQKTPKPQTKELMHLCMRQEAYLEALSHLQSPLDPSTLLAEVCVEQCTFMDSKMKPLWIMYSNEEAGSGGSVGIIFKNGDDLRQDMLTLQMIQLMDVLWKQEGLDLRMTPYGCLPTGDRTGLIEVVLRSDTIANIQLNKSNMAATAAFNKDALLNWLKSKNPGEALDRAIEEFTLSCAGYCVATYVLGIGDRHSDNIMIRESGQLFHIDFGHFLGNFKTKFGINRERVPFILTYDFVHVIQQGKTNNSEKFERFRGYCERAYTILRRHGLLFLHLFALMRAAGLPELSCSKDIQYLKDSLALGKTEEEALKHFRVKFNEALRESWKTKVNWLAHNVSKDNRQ
PI3Kδ (p110δ/p85α), sequence (P27986 whole entry partner): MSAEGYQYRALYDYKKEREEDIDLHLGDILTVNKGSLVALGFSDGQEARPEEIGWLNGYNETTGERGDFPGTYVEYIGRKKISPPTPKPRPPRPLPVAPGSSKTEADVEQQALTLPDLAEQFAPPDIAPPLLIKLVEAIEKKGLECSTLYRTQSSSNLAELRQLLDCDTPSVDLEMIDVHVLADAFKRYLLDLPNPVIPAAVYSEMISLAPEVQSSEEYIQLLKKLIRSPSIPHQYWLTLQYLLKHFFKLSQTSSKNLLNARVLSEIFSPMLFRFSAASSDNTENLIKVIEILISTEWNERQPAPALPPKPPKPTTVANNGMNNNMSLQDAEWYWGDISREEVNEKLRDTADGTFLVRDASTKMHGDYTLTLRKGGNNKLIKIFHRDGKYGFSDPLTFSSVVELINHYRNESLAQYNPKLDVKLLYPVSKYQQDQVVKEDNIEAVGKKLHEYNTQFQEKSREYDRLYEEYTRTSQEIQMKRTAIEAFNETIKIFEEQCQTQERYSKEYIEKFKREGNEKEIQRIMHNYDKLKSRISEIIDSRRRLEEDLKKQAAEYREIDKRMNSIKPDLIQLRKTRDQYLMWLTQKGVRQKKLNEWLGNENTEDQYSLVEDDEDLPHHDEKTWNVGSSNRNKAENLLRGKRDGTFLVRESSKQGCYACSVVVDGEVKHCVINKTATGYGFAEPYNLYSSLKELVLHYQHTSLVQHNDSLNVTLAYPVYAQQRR

As to `Cc1nnc(-c2cc(-c3cc4c(c(S(C)(=O)=O)c3)C(=O)N([C@@H](C)C3CC3)C4)ccn2)[nH]1` [Example 12, (S)-2-(1-Cyclopropylethyl)-5-(2-(5-methyl-4H-1,2,4-triazol-3-yl)pyridin-4-yl)-7-(methylsulfonyl)isoindolin-1-one], the figures for the IC50 (at PI3Kγ (p110γ); on PI3Kδ (p110δ/p85α); in test [1] (setting [2])) were below 100 nM, above 2000 nM and above 1000 nM, respectively.
Turning to `Cc1cc(-c2cc(-c3cc4c(c(S(C)(=O)=O)c3)C(=O)N([C@@H](C)C3CC3)C4)ccn2)[nH]n1` [Example 14, (S)-2-(1-Cyclopropylethyl)-5-(2-(3-methyl-1H-pyrazol-5-yl)pyridin-4-yl)-7-(methylsulfonyl)isoindolin-1-one, Trifluoroacetate Salt], the values for the IC50 (at PI3Kγ (p110γ); on PI3Kδ (p110δ/p85α); in test [1] (setting [2])) were below 100 nM, above 2000 nM and above 1000 nM, respectively.
The matching figures for `C[C@@H](C1CC1)N1Cc2cc(-c3ccnc(-c4ccn[nH]4)c3)cc(S(C)(=O)=O)c2C1=O` [Example 15, (S)-5-(2-(1H-Pyrazol-5-yl)pyridin-4-yl)-2-(1-cyclopropylethyl)-7-(methylsulfonyl)isoindolin-1-one, trifluoroacetate salt]: below 100 nM, above 2000 nM and above 1000 nM.
Taken in the same sequence, the figures for `Cc1cnc(-c2cc(-c3cc4c(c(S(C)(=O)=O)c3)C(=O)N([C@@H](C)C3CC3)C4)ccn2)[nH]1` [Example 16, (S)-2-(1-Cyclopropylethyl)-5-(2-(5-methyl-1H-imidazol-2-yl)pyridin-4-yl)-7-(methylsulfonyl)isoindolin-1-one, Trifluoroacetate Salt] were below 100 nM, 500 to 2000 nM and below 100 nM.
Consider `C[C@@H](C1CC1)N1Cc2cc(-c3ccnc(-c4ncc[nH]4)c3)cc(S(C)(=O)=O)c2C1=O` [Example 17, (S)-5-(2-(1H-Imidazol-2-yl)pyridin-4-yl)-2-(1-cyclopropylethyl)-7-(methylsulfonyl)isoindolin-1-one, trifluoroacetate salt], for which the IC50 (as a rule, the concentration that inhibits the measured activity by half) was below 100 nM at PI3Kγ (p110γ), above 2000 nM at PI3Kδ (p110δ/p85α) and 500 to 1000 nM in test [1] (setting [2]).
The matching figures for `Cc1nc(-c2cc(-c3cc4c(c(C(O)CO)c3)C(=O)N([C@@H](C)C3CC3)C4)ccn2)[nH]c1C` (stereo partly drawn) [Example 18, 2-((S)-1-Cyclopropylethyl)-7-(1,2-dihydroxyethyl)-5-(2-(4,5-dimethyl-1H-imidazol-2-yl)pyridin-4-yl)isoindolin-1-one]: below 100 nM, above 2000 nM and 100 to 500 nM.
Turning to `Cc1nc(-c2cc(-c3cc4c(c(S(C)(=N)=O)c3)C(=O)N([C@@H](C)C3CC3)C4)ccn2)[nH]c1C` (stereo partly drawn) [Example 20, 2-((S)-1-Cyclopropylethyl)-5-(2-(4,5-dimethyl-1H-imidazol-2-yl)pyridin-4-yl)-7-(S-methylsulfonimidoyl)isoindolin-1-one, Trifluoroacetate Salt], the half-maximal inhibitory concentration (IC50) at PI3Kγ (p110γ) is below 100 nM; on PI3Kδ (p110δ/p85α), above 2000 nM; in test [1] (serum starved THP-1 cells, Trifluoroacetate Salt), 100 to 500 nM.
Consider `CN=S(C)(=O)c1cc(-c2ccnc(-c3nc(C)c(C)[nH]3)c2)cc2c1C(=O)N([C@@H](C)C1CC1)C2` (stereo partly drawn) [Example 23, 2-((S)-1-Cyclopropylethyl)-5-(2-(4,5-dimethyl-1H-imidazol-2-yl)pyridin-4-yl)-7-(N,S-dimethylsulfonimidoyl)isoindolin-1-one], for which the IC50 was below 100 nM on PI3Kγ (p110γ), 500 to 2000 nM at PI3Kδ (p110δ/p85α) and 100 to 500 nM in test [1] (setting [2]).
